Measured values published in patent publication US7902170B2, “Influenza virus binding, sialylated oligosaccharide substance and use thereof” (priority 2000, dated 2011).
“Also recorded” adds a separate entry of the source.

Test system: avian virus A/duck/Czechoslovakia/56, H4N6
Type: binding, avian influenza A virus (H4N6)

Substance | Binding of avian influenza virus HRP conjugate to glycolipid on TLC plate
sulfatide | probably unspecific interaction
NeuAcα3Galβ3GalNAcβ4(NeuAcα8NeuAcα3)Galβ4GlcβCer [GT1b] | binding
NeuAcα3Galβ4GlcNAcβ3Galβ4GlcβCer [S-3-PG] | binding; also recorded: bound
NeuAcα3Galβ3GalNAcβ4(NeuAcα3)Galβ4GlcβCer [GD1a] | binding
NeuAcα3Galβ4GlcβCer [GM3] | not observed
